One assay addresses T1, full-length HMGB1 (Homo sapiens, UniProt P09429).
T1 construct: (i) full length: residues 2-215; hexaHis (TEV-cleavable) (N, cleaved yes); made in house
T1 sequence (P09429 2-215): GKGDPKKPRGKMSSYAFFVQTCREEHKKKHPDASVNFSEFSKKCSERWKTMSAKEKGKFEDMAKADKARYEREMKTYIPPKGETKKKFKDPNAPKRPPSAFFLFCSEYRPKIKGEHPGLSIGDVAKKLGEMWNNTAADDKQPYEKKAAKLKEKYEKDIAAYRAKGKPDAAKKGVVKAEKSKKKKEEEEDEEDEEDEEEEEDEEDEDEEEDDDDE
Briefly: WaterLOGSY NMR with HMGB1. As to conditions: 6 mM SA or 5 mM ac3AESA, 20 μM protein. In kind it is binding. An excerpt: (§1) NMR can be used to detect protein ligand interactions either by protein-detected experiments (Lepre, Moore et al. 2004), detecting changes in the frequencies of resonances of the protein sample due to ligand binding (protein-detected chemical shift perturbation (CSP) experiments), or by ligand-detected experiments (Lepre, Moore et al. 2004), in which NMR properties of the ligands due to ligand-protein interactions are detected. Protein-detected ligand binding experiments are usually done using isotope-enriched protein samples which can be studied by isotope-filtered NMR experiments, including for example ^15N-^1H-HSQC (Kay, Keifer et al. 1992). Ligand-detected experiments include the Waterlogsy experiment (Meyer and Peters 2003, Lepre, Moore et al. 2004, Furihata, Shimotakahara et al. 2008), which detects interactions in the ternary complex formed by the protein, the ligand, and one or more water molecules, and the Saturation Transfer Difference (STD) NMR experiments (Mayer and Meyer 2001, Lepre, Moore et al. 2004, Wang, Liu et al. 2004), which detects magnetization transfer from the protein to the ligand in the protein-ligand complex. The Waterlogsy experiment is a more sensitive experiment, typically employed to detect qualitatively if there is an interaction between protein and ligand. […]

For the next assay, the target named is T2, HMGB1-CXCL12 Complex (Homo sapiens, UniProt P09429, DEL90-93).
T2 construct: (i) full length: residues 2-215; full-length disulfide-intact CXCL12; hexaHis (TEV-cleavable) (N, cleaved yes)
T2 sequence (P09429 2-215 limits assumed): T1 sequence (P09429 2-215)
Briefly: WaterLOGSY NMR with HMGB1/CXCL12 complex. Type of assay: binding. As to conditions: 6 mM SA or 5 mM ac3AESA, 20 μM complex.
Excerpt: as §1

The target in assay [1] is T3, mutant (R24A/K28A) HMGB1^RE (Homo sapiens, UniProt P09429, K28A/R24A).
T3 construct: (i) full length: residues 2-215; made in house
T3 sequence (P09429 2-215 R24A/K28A): T1 sequence (P09429 2-215) with R23A, K27A
Briefly: Chemotaxis assay with mutant R24A/K28A HMGB1^RE. Type of assay: cell-based. As to conditions: NIH/3T3 fibroblasts. As to the method:
(§2) Cell migration was assayed using Boyden chambers (Venereau et al., 2012). The downside of PVP-free polycarbonate filters (8 μm pores; Millipore) was coated with 50 μg/ml fibronectin (Sigma). Serum-free DMEM (negative control), DMEM containing 0.1 nM fMLP (positive control; Sigma), or DMEM containing 1 nM HMGB1^RE or HMGB1^SS were placed in the lower chamber, together with different concentrations of SA (Sigma). The mouse 3T3 fibroblast cells were cultured in DMEM media supplemented with 10% CS until 90% confluence, washed twice with PBS to eliminate any floating cells, and harvested with trypsin. 50,000 cells in 200 μL were added to the upper chamber, and cells were left to migrate for 3 h at 37° C. Non-migrating cells were removed with a cotton swab, and migrated cells were fixed with ethanol and stained with Giemsa.
An alternative explanation is that SA, at low concentrations, affects another factor in vivo, which results indirectly in suppression of HMGB1^RE-induced chemotaxis. […] Therefore, these residues were mutated to Ala to form the double mutant Arg24Ala/Lys28Ala (R24A/K28A).

For another assay, the target named is T4, K12A/K68A HMGB1^RE (Homo sapiens, UniProt P09429, K12A/K68A).
T4 construct: (i) full length: residues 2-215; made in house
T4 sequence (P09429 2-215 K12A/K68A): T1 sequence (P09429 2-215) with K11A, K67A
As to the kind of experiment: Chemotaxis assay with mutant K12A/K68A HMGB1^RE. In kind it is cell-based. The following applies: 1 nM mutant HMGB1^RE, 30 μM SA. As to the method: as §2
Two additional double mutants in Box A were constructed—H27A/R48A and K12A/K68A. […] Since mutant H27A/R48A no longer had chemo-attractant activity, the effect of SA on this activity could not be assessed (FIG. 12).

Another assay deals with COX. As to conditions: cited from earlier work.
The target in a further assay is T5, AtHMGB3 (Arabidopsis thaliana, UniProt P93047).
T5 sequence (P93047 1-141): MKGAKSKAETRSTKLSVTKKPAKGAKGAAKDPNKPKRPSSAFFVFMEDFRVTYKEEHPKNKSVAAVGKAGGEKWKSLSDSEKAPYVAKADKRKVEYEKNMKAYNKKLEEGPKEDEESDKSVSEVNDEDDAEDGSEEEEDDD
Briefly: Photoaffinity labeling of AtHMGB3 with 4AzSA, competition by SA. As to conditions: 50 μM 4AzSA, increasing concentrations of SA.

Numbering of substitutions follows the chain as printed.

The term IC50 denotes the concentration that gives 50% inhibition.

Take `O=C(O)c1ccccc1O` [SA, salicylic acid]: at full-length HMGB1, the “WaterLOGSY binding to HMGB1” value was “binds”. In addition, on HMGB1-CXCL12 Complex, the “WaterLOGSY binding to complex formed between CXCL12 and HMGB1” value was “binds”. The “inhibition of R24A/K28A HMGB1^RE's chemo-attractant activity” value in assay [1] is “not inhibited”. Moreover, the “inhibition by SA of K12A/K68A HMGB1^RE chemo-attractant activity” value at K12A/K68A HMGB1^RE is listed as “retained”. Moreover, the “IC50, inhibition of COX activity in vitro” value in the assay on COX (literature (Mitchell et al., 1997; Vane, 1971)) was above 100 µg/mL. Further, the IC50 with COX (literature, conversion in parentheses, read-out: IC50, inhibition of COX activity in vitro) is above 500 µM. Besides, on AtHMGB3, the “inhibition of crosslinking of 4AzSA to AtHMGB3” value is “effectively inhibited”.

Source of the values: patent US20180045715A1, “STRUCTURE AND FUNCTION OF THE SALICYCLIC ACID BINDING SITES ON HUMAN HMGB1 AND METHODS OF USE THEREOF FOR THE RATIONAL DESIGN OF BOTH SALICYCLIC ACID DERIVATIVES AND OTHER AGENTS THAT ALTER ANIMAL AND PLANT HMGBS ACTIVITIES” (Boyce Thompson Institute for Plant Research, Inc., priority 2015, published 2018).
